From patent US5700635A, “HIV-1 gag cytotoxic T-lymphocyte epitope and method of use” (United Biomedical, Inc., priority 1989, dated 1997)

Columns and labels:
[1] = test system: cytotoxic T lymphocytes specific for gag and HLA B8

Q: With `CC[C@H](C)[C@H](NC(=O)[C@H](CCC(=O)O)NC(=O)CNC(=O)[C@@H](NC(=O)[C@@H]1CCCN1C(=O)[C@@H](NC(=O)[C@@H]1CCCN1C(=O)[C@@H]1CCCN1C(=O)[C@@H](N)CC(N)=O)[C@@H](C)CC)C(C)C)C(=O)N[C@@H](Cc1ccc(O)cc1)C(=O)N[C@@H](CCCCN)C(=O)N[C@@H](CCCNC(=N)N)C(=O)N[C@@H](Cc1c[nH]c2ccccc12)C(=O)N[C@H](C(=O)N[C@H](C(=O)N[C@@H](CS)C(=O)O)[C@@H](C)CC)[C@@H](C)CC` [p24-13, NH2 -asparagine-proline-proline-isoleucine-proline-valine-glycine-glutamate-isoleucine-tyrosine-lysine-arginine-tryptophan-isoleucine-iso leucine-cysteine-COOH] as the compound, how does the “recognition of peptide by cytotoxic T lymphocytes (lysis of target cells)” value [1] read?
A: recognised by cytotoxic T lymphocytes specific for gag and HLA B8

Q: What about the “specific interaction with HLA class I molecule” value [1] of the same compound?
A: interacts specifically with HLA B8

Q: And the “stimulation of cytotoxic T lymphocytes to grow in vitro” value (cytotoxic T lymphocytes)?
A: have been used to stimulate cytotoxic T lymphocytes to grow in vitro
